From ChEMBL document CHEMBL1201862, “PubChem BioAssay data set” (2004)
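Briefly, cells in 96-well plates were exposed to five compound concentrations for 48 h, and endpoints were estimated by linear interpolation. Here, GI50 denotes the concentration required for 50% inhibition of growth.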 Calls of active or inactive are those of the source. No stated cut-off is given here; in the data, active = GI50 up to about 1.1 µM and inactive = higher.

Key:
Assay in all cases: growth of human tumour cells (NCI), 48 h
[1] = tested on: NCI-H23
[2] = tested on: SN12C
[3] = tested on: SR
[4] = tested on: HOP-92
[5] = tested on: T47D
[6] = tested on: Hs-578T
[7] = tested on: LOX IMVI
[8] = tested on: EKVX
[9] = tested on: M14
[10] = tested on: UACC-257
[11] = tested on: PC-3
[12] = tested on: NCI/ADR-RES
[13] = tested on: SK-OV-3
[14] = tested on: MDA-MB-435
[15] = tested on: OVCAR-3
[16] = tested on: HCT-116
[17] = tested on: RPMI-8226
[18] = tested on: SK-MEL-2
[19] = tested on: MDA-N
[20] = tested on: OVCAR-4
[21] = tested on: RXF 393
[22] = tested on: SF-295
[23] = tested on: COLO 205
[24] = tested on: UO-31
[25] = tested on: 786-0
[26] = tested on: HT-29
[27] = tested on: MDA-MB-231
[28] = tested on: TK-10
[29] = tested on: A498
[30] = tested on: MOLT-4
[31] = tested on: U-251
[32] = tested on: NCI-H226
[33] = tested on: A549
[34] = tested on: IGROV-1
[35] = tested on: ACHN
[36] = tested on: Malme-3M
[37] = tested on: HL-60
[38] = tested on: SK-MEL-5
[39] = tested on: KM12
[40] = tested on: HCC 2998
[41] = tested on: NCI-H522
[42] = tested on: SF-539
[43] = tested on: OVCAR-5
[44] = tested on: MCF7
[45] = tested on: HOP-62
[46] = tested on: K562
[47] = tested on: CCRF-CEM
[48] = tested on: UACC-62
[49] = tested on: OVCAR-8
[50] = tested on: SNB-75
[51] = tested on: DU-145
[52] = tested on: NCI-H460
[53] = tested on: HCT-15
[54] = tested on: SF-268
[55] = tested on: SNB-19
[56] = tested on: SK-MEL-28
[57] = tested on: SW-620
[58] = tested on: CAKI-1

Measured: GI50

CC(C)Cc1ccc(C(C)C(=O)O)cc1 (configuration not stated) [IBUPROFEN]
inactive: [1] > 100 µM

COc1cc(C2c3cc4c(cc3[C@@H](NC3CCN(Cc5ccccc5)CC3)C3COC(=O)[C@H]23)OCO4)cc(OC)c1O (some centres not stated)
active: [2] 0.0399 µM | [3] < 0.01 µM

COC(=O)c1c2c(cc3c1CC1(C3)Cc3cc4c(c(C(=O)OC)c3C1)CCC4)CCC2
inactive: [4] > 100 µM | [5] > 100 µM | [6] 65.9 µM | [7] > 100 µM | [8] > 100 µM | [9] > 100 µM | [10] > 100 µM | [11] > 100 µM | [12] > 100 µM | [13] > 100 µM | [14] > 100 µM | [15] > 100 µM | [16] > 100 µM | [17] > 100 µM | [18] > 100 µM | [19] > 100 µM | [20] 86.9 µM | [21] > 100 µM | [22] > 100 µM | [23] > 100 µM | [24] 13.6 µM | [25] > 100 µM | [26] > 100 µM | [27] > 100 µM | [28] > 100 µM | [29] > 100 µM | [30] > 100 µM | [31] > 100 µM | [32] > 100 µM | [33] > 100 µM | [34] > 100 µM | [35] > 100 µM | [36] > 100 µM | [37] 22.1 µM | [38] > 100 µM | [2] > 100 µM | [1] > 100 µM | [39] > 100 µM | [40] > 100 µM | [41] > 100 µM | [42] > 100 µM | [43] > 100 µM | [44] > 100 µM | [45] > 100 µM | [46] > 100 µM | [47] 98.9 µM | [48] 55.8 µM | [3] 30.7 µM | [49] > 100 µM

C/C1=C\CC[C@@]2(C)O[C@@H]2[C@H]2OC(=O)C(C)C2C[C@H]1O (some centres not stated)
> 100 µM: [53]
inactive: [4] > 100 µM | [6] 10.3 µM | [7] > 100 µM | [8] > 100 µM | [50] > 100 µM | [51] > 100 µM | [9] > 100 µM | [52] > 100 µM | [10] > 100 µM | [11] > 100 µM | [12] > 100 µM | [13] > 100 µM | [14] > 100 µM | [16] > 100 µM | [17] > 100 µM | [18] > 100 µM | [20] > 100 µM | [21] > 100 µM | [22] > 100 µM | [54] > 100 µM | [23] > 100 µM | [24] > 100 µM | [55] > 100 µM | [25] > 100 µM | [26] > 100 µM | [27] > 100 µM | [28] > 100 µM | [30] > 100 µM | [31] > 100 µM | [33] > 100 µM | [34] > 100 µM | [35] > 100 µM | [36] > 100 µM | [38] 22.5 µM | [2] > 100 µM | [1] > 100 µM | [56] > 100 µM | [39] > 100 µM | [40] > 100 µM | [41] > 100 µM | [57] > 100 µM | [43] > 100 µM | [44] > 100 µM | [58] > 100 µM | [46] > 100 µM | [47] > 100 µM | [48] > 100 µM | [3] > 100 µM | [49] > 100 µM
